Molecular target: T1, PKN1-(C2), PKN1-(C2)-(342–605) (Rattus norvegicus, UniProt Q63433)
T1 construct: predominantly trimer
Test: intrinsic tryptophan fluorescence quenching, Scatchard
Assay type: binding
Details: 3 lipids per trimer, 20 mM phosphate pH 7.4, 25 mM NaCl, 25 °C, sonicated vesicles
Source text: intrinsic tryptophan fluorescence quenching, Scatchard on PKN1-(C2), PKN1-(C2)-(342–605)

[1] = type I (high-affinity) site of a biphasic curve

T1 sequence (Q63433 342-605): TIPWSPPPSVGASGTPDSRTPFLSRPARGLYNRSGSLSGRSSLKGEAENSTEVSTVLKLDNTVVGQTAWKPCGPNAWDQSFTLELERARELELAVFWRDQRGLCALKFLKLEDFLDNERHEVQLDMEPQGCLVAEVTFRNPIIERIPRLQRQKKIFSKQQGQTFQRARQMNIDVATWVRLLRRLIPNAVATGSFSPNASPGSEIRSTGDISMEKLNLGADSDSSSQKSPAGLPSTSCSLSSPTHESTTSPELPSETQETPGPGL

| Substance | Kd [1] [nM] | Kd (one class of sites) [nM] |
| --- | --- | --- |
| cardiolipin | 1000 ± 600 | – |
| phosphatidic acid | 300 | – |
| phosphatidylcholine | – | 100 |
| phosphatidylserine | – | 200 |

From article PMC10956426, “Lipid-Binding Regions within PKC-Related Serine/Threonine Protein Kinase N1 (PKN1) Required for Its Regulation” (Biochemistry, 2024)
